Drawing on US20200190067A1, “PHOTO-SWITCHABLE CHEMICAL INDUCERS OF DIMERIZATION FOR CONTROL OF PROTEIN FUNCTION IN CELLS BY LIGHT” (Max-Planck-Gesellschaft zur Förderung der Wissenschaften …, priority 2017, published 2020), this text covers absorption peak for one compound.

The data set is described as follows: UV-Vis absorption spectra. The format is physicochemical. To be noted: 50 μM dimerizer in PBS buffer (pH 7.4, 0.5% DMSO). Here is the method:
FIG. 1: UV-Vis absorption spectra of TMP—PC—Cl (black) and 4-CmTMP—PC—Cl (red). A solution of 50 μM of the respective dimerizer in PBS buffer (pH 7.4, 0.5% DMSO) was subjected to UV-Vis absorption analysis (FIG. 1). 0.5% DMSO in PBS was used as the blank.
UV-Vis absorption spectra were recorded using SHIMADZU UV-2401PC UV-Vis Recording Spectrophotometer. A solution of 50 μM of the respective dimerizer in PBS buffer (pH 7.4, 0.5% DMSO) was subjected to UV-Vis absorption analysis (FIG. 1). 0.5% DMSO in PBS was used as the blank.

`COc1cc(COC(=O)NCCCOCCOCCOCCCNC(=O)COc2c(OC)cc(Cc3cnc(N)nc3N)cc2OC)c([N+](=O)[O-])cc1OCCOCCOCCOCCOCCOCCCCCCCl` [TMP—PC—Cl, 4-((21-Chloro-3,6,9,12,15-pentaoxahenicosyl)oxy)-5-methoxy-2-nitrobenzyl (1-(4-((2,4-diaminopyrimidin-5-yl)methyl)-2,6-dimethoxyphenoxy)-2-oxo-7,10,13-trioxa-3-azahexadecan-16-yl)carbamate] yielded an absorption peak of 348.5 nm.
